Test results taken from ChEMBL document CHEMBL1201862, “PubChem BioAssay data set” (2004).
One block for each compound: values may come before it. Active and inactive are the calls of the source.

How the values were obtained:
[1] = target: T1, Mannose-6-phosphate isomerase (Homo sapiens, UniProt P34949); test: human PMI inhibitors, high substrate, primary screen, biochemical, fluorescence intensity, high mannose 6-phosphate (AID 1220)
T1 sequence (P34949 whole entry): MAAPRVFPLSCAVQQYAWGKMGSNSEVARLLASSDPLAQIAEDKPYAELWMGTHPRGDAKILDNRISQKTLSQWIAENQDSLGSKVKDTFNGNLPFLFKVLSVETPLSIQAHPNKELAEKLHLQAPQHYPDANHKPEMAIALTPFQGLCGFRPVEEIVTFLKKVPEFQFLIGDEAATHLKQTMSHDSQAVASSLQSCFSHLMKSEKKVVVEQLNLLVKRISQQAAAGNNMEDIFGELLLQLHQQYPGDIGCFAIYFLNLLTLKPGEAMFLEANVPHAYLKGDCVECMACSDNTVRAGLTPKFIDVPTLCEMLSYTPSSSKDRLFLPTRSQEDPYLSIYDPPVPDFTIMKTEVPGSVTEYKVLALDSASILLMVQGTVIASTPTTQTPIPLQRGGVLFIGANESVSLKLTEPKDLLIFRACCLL

[2] = Jurkat T cell cytotoxicity, dose response, cytotoxicity control for P. falciparum gametocyte viability project, luminescence (AID 1117277); assay type: functional, cell-based;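 further: potency reflects loss of cellular ATP meaning fewer viable cells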
[3] = C. albicans growth with fluconazole, confirmation, fluorescence, retest (AID 2467); assay type: functional, cell-based
[4] = P. falciparum late gametocyte killing, dose response, luminescence (AID 1117278); assay type: functional, cell-based;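 further: gametocytes exposed to compound for 24 hours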
[5] = NIH-3T3 fibroblast cytotoxicity, dose response, cytotoxicity control, cell-based, fluorescence, Alamar Blue, secondary assay (AID 2327); assay type: functional;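 further: NIH-3T3 mouse fibroblasts cultured with fluconazole at 8 µg/mL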
[6] = target: 72 kDa type IV collagenase (Homo sapiens, UniProt P08253); test: Dose Response validation of uHTS RPN11 inhibitor hits using a MMP-2 Fluorescence assay.; assay type: functional
[7] = target: Peroxisome proliferator-activated receptor gamma/Nuclear receptor corepressor 2 (Homo sapiens, UniProt P37231+Q9Y618); test: Counterscreen for NR2E3 inverse agonists: TR-FRET-based biochemical high throughput dose response assay to identify inverse agonists of the interaction between peroxisome proliferator-activated receptor gamma (PPARg) and nuclear receptor co-repressor 2 (NCOR2).; assay type: functional
Prothrombin = Prothrombin (Bos taurus, UniProt P00735); test: thrombin inhibition, dose response, biochemical, fluorescence polarization, uHTS hits (AID 602369); assay type: functional
[8] = target: 26S proteasome non-ATPase regulatory subunit 14 (Homo sapiens, UniProt O00487); test: inhibition of proteasome subunit RPN11 – biochemical, fluorescence polarization, uHTS hits, confirmation (AID 602368); assay type: functional
[9] = target: Photoreceptor-specific nuclear receptor (Homo sapiens, UniProt Q9Y5X4); test: NR2E3 inverse agonists, dose response, biochemical, TR-FRET (AID 463256); assay type: functional
Cytochrome P450 2C19 = Cytochrome P450 2C19 (Homo sapiens, UniProt P33261); test: qHTS Assay for Inhibitors and Substrates of Cytochrome P450 2C19. [Related pubchem assays: 410 ]; assay type: ADME; conditions: read-out: Potency
Vero = test: West Nile virus antiviral activity, cell-based, CPE readout (AID 1621); assay type: functional; conditions: Chlorocebus sabaeus

Sequence of Cytochrome P450 2C19 (P33261 whole entry): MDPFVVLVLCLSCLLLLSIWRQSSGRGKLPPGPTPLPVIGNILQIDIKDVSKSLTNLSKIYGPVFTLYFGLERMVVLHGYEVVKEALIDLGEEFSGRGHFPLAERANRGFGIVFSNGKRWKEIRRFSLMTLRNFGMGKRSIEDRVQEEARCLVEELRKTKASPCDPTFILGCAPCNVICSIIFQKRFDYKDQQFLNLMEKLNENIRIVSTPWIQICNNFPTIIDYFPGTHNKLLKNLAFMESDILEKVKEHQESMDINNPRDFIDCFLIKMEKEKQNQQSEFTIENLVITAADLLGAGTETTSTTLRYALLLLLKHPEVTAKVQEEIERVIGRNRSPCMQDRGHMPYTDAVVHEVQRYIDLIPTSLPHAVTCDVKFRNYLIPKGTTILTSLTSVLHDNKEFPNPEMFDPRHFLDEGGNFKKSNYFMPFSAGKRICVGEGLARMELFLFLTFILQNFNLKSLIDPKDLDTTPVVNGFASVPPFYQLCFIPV
Sequence of Peroxisome proliferator-activated receptor gamma/Nuclear receptor corepressor 2 (P37231 whole entry): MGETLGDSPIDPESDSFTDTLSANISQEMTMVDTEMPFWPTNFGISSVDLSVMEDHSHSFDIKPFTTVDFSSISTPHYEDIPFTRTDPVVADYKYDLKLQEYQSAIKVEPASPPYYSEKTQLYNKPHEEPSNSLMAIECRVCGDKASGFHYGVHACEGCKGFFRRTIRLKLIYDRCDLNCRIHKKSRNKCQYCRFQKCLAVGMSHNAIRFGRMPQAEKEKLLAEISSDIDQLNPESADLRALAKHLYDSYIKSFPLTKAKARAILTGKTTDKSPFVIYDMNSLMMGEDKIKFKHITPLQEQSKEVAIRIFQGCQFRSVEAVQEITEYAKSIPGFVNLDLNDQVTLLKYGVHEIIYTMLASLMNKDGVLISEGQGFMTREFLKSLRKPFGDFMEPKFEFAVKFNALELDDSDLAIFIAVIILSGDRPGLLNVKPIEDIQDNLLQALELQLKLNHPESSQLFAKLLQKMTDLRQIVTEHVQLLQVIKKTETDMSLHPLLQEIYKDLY
Sequence of Peroxisome proliferator-activated receptor gamma/Nuclear receptor corepressor 2 (Q9Y618 whole entry): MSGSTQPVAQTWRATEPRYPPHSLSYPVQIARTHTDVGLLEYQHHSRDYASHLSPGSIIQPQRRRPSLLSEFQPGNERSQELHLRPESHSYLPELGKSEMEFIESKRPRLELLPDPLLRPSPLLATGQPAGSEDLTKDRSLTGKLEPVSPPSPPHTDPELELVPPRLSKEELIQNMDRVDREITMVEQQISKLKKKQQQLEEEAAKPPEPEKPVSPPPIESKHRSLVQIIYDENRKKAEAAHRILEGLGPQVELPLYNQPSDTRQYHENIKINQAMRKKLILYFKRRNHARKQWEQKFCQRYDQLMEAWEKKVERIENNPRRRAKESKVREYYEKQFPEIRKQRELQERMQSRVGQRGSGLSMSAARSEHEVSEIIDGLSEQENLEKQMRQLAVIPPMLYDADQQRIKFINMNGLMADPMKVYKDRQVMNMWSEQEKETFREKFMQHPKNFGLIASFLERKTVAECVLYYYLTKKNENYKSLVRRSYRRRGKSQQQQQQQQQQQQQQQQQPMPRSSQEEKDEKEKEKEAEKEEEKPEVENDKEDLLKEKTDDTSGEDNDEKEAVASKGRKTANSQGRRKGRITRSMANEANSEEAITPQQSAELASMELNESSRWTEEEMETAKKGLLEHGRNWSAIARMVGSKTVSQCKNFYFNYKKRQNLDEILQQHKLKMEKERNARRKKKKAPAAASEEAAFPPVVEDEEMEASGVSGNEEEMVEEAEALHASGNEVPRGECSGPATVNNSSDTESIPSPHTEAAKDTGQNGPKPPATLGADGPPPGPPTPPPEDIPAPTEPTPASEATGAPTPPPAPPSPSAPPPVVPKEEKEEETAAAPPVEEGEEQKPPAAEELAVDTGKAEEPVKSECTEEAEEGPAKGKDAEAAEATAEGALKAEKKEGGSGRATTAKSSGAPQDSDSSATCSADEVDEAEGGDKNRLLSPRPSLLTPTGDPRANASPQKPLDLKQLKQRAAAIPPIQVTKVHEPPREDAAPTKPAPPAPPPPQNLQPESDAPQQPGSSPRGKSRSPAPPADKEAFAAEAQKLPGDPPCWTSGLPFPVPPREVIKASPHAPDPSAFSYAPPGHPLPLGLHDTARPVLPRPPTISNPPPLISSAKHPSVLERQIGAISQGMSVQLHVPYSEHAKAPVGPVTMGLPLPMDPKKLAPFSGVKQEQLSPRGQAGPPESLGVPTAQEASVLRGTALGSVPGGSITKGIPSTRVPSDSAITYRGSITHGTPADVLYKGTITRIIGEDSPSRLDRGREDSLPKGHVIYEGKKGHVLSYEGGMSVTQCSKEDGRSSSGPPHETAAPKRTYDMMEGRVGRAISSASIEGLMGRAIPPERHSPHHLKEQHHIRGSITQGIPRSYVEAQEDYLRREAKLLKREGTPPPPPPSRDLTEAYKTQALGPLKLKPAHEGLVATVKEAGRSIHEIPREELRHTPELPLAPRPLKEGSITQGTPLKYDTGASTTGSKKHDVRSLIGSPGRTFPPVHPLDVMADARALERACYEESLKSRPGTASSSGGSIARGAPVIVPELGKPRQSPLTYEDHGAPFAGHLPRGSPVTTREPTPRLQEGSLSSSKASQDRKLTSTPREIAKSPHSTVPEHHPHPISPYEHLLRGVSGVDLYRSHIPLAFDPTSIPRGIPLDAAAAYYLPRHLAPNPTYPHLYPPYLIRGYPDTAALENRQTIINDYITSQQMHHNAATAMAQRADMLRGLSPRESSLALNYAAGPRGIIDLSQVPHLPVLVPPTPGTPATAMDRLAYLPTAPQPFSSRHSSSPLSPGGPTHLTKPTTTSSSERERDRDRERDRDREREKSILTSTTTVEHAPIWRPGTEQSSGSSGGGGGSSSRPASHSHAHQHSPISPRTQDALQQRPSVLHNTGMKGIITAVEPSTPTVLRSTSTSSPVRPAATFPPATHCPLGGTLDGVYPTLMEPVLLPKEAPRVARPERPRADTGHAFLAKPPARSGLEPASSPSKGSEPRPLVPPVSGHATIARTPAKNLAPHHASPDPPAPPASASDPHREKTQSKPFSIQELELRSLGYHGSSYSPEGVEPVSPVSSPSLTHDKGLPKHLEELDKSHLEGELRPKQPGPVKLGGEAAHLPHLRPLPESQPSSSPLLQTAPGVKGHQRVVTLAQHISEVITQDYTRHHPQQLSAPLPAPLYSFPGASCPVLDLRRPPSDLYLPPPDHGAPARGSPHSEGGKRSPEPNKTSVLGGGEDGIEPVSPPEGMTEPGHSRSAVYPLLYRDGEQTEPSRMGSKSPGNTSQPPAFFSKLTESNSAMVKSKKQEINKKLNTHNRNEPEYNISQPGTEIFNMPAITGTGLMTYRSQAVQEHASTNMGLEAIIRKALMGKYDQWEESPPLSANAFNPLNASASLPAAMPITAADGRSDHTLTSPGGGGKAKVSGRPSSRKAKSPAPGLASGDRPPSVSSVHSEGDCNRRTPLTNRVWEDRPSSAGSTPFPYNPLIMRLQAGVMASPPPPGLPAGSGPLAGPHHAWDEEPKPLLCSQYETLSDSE
Sequence of Photoreceptor-specific nuclear receptor (Q9Y5X4 whole entry): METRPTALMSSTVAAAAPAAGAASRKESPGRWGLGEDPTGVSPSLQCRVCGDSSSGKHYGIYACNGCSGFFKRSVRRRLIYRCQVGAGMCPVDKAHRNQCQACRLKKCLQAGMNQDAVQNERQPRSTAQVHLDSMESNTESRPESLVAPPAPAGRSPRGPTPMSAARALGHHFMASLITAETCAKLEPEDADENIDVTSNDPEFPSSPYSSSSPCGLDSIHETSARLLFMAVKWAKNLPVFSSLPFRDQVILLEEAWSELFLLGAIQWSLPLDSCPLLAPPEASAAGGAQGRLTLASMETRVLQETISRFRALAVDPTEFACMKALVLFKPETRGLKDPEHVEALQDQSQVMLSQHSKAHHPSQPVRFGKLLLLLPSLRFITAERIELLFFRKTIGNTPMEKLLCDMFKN
Sequence of 72 kDa type IV collagenase (P08253 whole entry): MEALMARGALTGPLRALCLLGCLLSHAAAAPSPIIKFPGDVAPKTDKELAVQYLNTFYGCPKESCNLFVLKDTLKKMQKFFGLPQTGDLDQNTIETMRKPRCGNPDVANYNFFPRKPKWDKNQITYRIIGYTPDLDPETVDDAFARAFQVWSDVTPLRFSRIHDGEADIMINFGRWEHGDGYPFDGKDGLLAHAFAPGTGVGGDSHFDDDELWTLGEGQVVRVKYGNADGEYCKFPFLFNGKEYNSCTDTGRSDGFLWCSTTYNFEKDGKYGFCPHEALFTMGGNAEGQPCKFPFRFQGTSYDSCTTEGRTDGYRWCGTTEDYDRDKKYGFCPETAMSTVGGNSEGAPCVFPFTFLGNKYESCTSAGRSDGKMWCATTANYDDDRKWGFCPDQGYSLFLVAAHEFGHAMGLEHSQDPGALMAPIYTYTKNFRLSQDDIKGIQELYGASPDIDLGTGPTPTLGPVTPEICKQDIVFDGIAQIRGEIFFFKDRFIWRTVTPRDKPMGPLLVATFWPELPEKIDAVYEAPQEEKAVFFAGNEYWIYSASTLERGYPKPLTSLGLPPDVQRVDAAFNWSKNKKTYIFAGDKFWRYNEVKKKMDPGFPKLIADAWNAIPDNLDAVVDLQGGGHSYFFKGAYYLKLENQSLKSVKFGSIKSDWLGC
Sequence of 26S proteasome non-ATPase regulatory subunit 14 (O00487 whole entry): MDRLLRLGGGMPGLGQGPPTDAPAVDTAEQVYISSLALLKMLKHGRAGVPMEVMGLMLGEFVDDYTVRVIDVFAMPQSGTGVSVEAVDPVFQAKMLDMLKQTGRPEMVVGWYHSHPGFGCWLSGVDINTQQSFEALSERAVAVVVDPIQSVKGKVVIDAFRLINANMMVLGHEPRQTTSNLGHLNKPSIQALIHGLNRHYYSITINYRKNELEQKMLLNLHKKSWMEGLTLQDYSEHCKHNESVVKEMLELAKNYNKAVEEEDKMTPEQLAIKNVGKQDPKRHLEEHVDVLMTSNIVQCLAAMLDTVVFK

- IC50 [1]: > 50 µM (not active)
SMILES: Nc1c(N2CCOCC2)cc(Cl)c2nonc12

- IC50 [6]: > 100 µM (inactive)
- IC50 [7]: 1.72 µM (active)
- IC50 (Prothrombin): 92 µM (active)
- IC50 [8]: 24.1 µM (active)
- IC50 [9]: 2.33 µM (active)
SMILES: Cc1c(NC(=O)c2cccc(-c3cc4ccccc4oc3=O)c2)cccc1-c1nc2ncccc2o1

- IC50 [7]: 5.54 µM (active)
- IC50 [9]: 4.29 µM (active)
SMILES: O=C(Cc1ccc(Cl)cc1)Nc1ccc2oc(-c3ccncc3)nc2c1

- AC50 (Cytochrome P450 2C19): 7.94 µM (inconclusive)
SMILES: C=C[C@@]1(C)C=C2CC[C@@H]3[C@](C)(CCC[C@@]3(C)C(=O)O)[C@H]2CC1 [PIMARIC ACID]

The next lines start with the compound.

SMILES: CC(=O)c1cnc(Nc2cccc(Cl)c2Cl)s1
- IC50 [2]: > 83.3 µM (inactive)
- EC50 [3]: > 38 µM (not active)
- IC50 [4]: > 109 µM (inactive)
- EC50 [5]: > 160 µM (inactive)

SMILES: Cc1ccc(NCC(O)C(O)C(O)CO)cc1C (configuration not stated)
- IC50 [2]: > 83.3 µM (inactive)
- IC50 [4]: > 109 µM (inactive)

SMILES: CC(=O)c1ccc(C2C=CC(Oc3ccc(F)cc3C)C(CO)O2)cc1 (configuration not stated)
- AC50 (Cytochrome P450 2C19): 6.31 µM (inconclusive)

SMILES: CCOC(=O)c1[nH]c2ccccc2c1NC(=O)CC(C)(C)C
- IC50 (Vero): 22.2 µM (active)
